Key:
[1] = Inhibition of CDK2/cyclin A (unknown origin); parameters: species or system Homo sapiens
[2] = molecular target: Serine/threonine-protein kinase D1 (Homo sapiens, UniProt Q15139); assay: Inhibition of PRKD1 (unknown origin)
[3] = molecular target: Macrophage colony-stimulating factor 1 receptor (Homo sapiens, UniProt P07333); assay: Inhibition of CSF1R (unknown origin)
[4] = molecular target: T1, G protein-coupled receptor kinase 4 (Homo sapiens, UniProt P32298); assay: Inhibition of GRK4 (unknown origin)
[5] = molecular target: Homeodomain-interacting protein kinase 4 (Homo sapiens, UniProt Q8NE63); assay: Inhibition of HIPK4 (unknown origin)
Homeodomain-interacting protein kinase 4, sequence (Q8NE63 whole entry): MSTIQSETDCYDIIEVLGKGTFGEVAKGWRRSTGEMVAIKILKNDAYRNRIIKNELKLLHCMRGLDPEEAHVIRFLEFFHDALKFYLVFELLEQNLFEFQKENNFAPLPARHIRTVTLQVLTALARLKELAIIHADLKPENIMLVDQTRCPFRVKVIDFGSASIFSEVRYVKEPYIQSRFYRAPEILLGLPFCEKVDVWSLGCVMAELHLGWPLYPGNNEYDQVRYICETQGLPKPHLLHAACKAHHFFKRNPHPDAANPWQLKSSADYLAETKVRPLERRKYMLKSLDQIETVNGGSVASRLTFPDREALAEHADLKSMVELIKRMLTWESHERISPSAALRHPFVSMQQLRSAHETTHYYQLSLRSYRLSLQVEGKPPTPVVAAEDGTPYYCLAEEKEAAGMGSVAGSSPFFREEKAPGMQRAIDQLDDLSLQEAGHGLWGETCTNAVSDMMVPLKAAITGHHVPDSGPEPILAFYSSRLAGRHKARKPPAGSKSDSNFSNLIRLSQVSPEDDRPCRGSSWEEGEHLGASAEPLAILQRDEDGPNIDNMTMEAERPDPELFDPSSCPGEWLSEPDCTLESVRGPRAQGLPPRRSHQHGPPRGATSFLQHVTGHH

[6] = molecular target: T2, Vascular endothelial growth factor receptor 2 (Homo sapiens, UniProt P35968); assay: Inhibition of KDR (unknown origin)
T2 sequence (P35968 whole entry): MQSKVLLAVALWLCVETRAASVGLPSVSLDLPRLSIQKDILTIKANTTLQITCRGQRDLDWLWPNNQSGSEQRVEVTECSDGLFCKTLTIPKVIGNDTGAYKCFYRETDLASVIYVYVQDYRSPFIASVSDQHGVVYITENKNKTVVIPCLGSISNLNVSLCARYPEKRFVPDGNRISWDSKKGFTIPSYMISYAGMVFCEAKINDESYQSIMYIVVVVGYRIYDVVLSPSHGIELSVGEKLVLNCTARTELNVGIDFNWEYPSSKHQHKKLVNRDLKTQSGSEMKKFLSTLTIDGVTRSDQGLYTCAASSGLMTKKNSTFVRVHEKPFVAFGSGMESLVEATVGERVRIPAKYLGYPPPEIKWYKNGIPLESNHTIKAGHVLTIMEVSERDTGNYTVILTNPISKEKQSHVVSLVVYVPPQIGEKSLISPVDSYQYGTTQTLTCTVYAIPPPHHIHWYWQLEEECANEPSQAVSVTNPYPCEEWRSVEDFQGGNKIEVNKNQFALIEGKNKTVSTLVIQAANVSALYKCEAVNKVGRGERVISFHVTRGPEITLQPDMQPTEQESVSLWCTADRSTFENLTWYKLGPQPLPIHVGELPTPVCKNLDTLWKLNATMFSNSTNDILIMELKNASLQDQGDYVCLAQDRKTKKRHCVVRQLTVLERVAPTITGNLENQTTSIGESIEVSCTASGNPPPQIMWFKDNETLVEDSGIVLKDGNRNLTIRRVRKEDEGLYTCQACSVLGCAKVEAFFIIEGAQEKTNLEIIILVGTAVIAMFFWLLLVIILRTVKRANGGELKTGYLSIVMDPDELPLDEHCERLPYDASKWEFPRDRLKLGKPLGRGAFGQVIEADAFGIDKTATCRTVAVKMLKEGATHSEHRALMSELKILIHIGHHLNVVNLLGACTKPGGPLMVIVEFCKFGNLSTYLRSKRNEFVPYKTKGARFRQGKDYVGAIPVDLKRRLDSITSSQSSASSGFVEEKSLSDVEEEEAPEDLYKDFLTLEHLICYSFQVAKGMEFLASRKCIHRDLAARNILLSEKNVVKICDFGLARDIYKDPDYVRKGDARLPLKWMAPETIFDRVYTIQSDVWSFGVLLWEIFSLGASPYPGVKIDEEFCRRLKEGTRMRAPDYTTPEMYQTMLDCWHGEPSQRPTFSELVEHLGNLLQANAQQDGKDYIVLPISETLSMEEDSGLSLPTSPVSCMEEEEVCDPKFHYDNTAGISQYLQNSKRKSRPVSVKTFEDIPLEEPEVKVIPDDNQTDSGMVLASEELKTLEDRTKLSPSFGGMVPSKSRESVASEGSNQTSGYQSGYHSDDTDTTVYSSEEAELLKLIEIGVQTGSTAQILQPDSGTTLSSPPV

[7] = molecular target: Serine/threonine-protein kinase MARK1 (Homo sapiens, UniProt Q9P0L2); assay: Inhibition of MARK1 (unknown origin)
[8] = molecular target: BDNF/NT-3 growth factors receptor (Homo sapiens, UniProt Q16620); assay: Inhibition of NTRK2 (unknown origin)
[9] = molecular target: Platelet-derived growth factor receptor alpha (Homo sapiens, UniProt P16234); assay: Inhibition of PDGFRA (unknown origin)
[10] = molecular target: T3, Protein kinase C gamma type (Homo sapiens, UniProt P05129); assay: Inhibition of PRKCG (unknown origin)
[11] = molecular target: Tyrosine-protein kinase SYK (Homo sapiens, UniProt P43405); assay: Inhibition of SYK (unknown origin)
[12] = molecular target: G protein-coupled receptor kinase 3 (Homo sapiens, UniProt P35626); assay: Inhibition of ADRBK2 (unknown origin)
[13] = molecular target: Tyrosine-protein kinase Blk (Homo sapiens, UniProt P51451); assay: Inhibition of BLK (unknown origin)
[14] = molecular target: Calcium/calmodulin-dependent protein kinase type IV (Homo sapiens, UniProt Q16566); assay: Inhibition of CAMK4 (unknown origin)
[15] = molecular target: Tyrosine-protein kinase CSK (Homo sapiens, UniProt P41240); assay: Inhibition of CSK (unknown origin)
[16] = molecular target: Casein kinase I isoform gamma-2 (Homo sapiens, UniProt P78368); assay: Inhibition of CSNK1G2 (unknown origin)
[17] = molecular target: Casein kinase II subunit alpha (Homo sapiens, UniProt P68400); assay: Inhibition of CSNK2A1 (unknown origin)
[18] = molecular target: Dual specificity tyrosine-phosphorylation-regulated kinase 1A (Homo sapiens, UniProt Q13627); assay: Inhibition of DYRK1A (unknown origin)
Ephrin type-A receptor 2 = Ephrin type-A receptor 2 (Homo sapiens, UniProt P29317); assay: Inhibition of EPHA2 (unknown origin)
[19] = molecular target: Receptor tyrosine-protein kinase erbB-2 (Homo sapiens, UniProt P04626); assay: Inhibition of ERBB2 (unknown origin)
[20] = molecular target: Fibroblast growth factor receptor 3 (Homo sapiens, UniProt P22607); assay: Inhibition of FGFR3 (unknown origin)
[21] = molecular target: Glycogen synthase kinase-3 alpha (Homo sapiens, UniProt P49840); assay: Inhibition of GSK3alpha (unknown origin)
[22] = molecular target: Mitogen-activated protein kinase 12 (Homo sapiens, UniProt P53778); assay: Inhibition of MAPK12 (unknown origin)
[23] = molecular target: MAP kinase-activated protein kinase 2 (Homo sapiens, UniProt P49137); assay: Inhibition of MAPKAPK2 (unknown origin)
[24] = molecular target: MAP kinase-activated protein kinase 5 (Homo sapiens, UniProt Q8IW41); assay: Inhibition of MAPKAPK5 (unknown origin)
MAP kinase-activated protein kinase 5, sequence (Q8IW41 whole entry, the tested form may be a part): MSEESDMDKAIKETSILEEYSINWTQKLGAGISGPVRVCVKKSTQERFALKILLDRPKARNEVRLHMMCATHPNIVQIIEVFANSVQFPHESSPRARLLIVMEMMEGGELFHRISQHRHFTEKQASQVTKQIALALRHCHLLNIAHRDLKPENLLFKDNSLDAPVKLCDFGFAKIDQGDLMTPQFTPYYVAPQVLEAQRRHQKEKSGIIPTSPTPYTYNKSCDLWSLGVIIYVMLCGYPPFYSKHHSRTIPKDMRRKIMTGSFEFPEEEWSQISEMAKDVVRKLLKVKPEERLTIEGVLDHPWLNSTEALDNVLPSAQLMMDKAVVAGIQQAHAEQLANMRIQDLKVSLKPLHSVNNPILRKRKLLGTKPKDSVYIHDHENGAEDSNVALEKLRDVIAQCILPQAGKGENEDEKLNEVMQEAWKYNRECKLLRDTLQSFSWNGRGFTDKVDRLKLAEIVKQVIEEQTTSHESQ

[25] = molecular target: PAS domain-containing serine/threonine-protein kinase (Homo sapiens, UniProt Q96RG2); assay: Inhibition of PASK (unknown origin)
[26] = molecular target: Protein kinase C beta type (Homo sapiens, UniProt P05771); assay: Inhibition of PRKCB1 (unknown origin)
[27] = molecular target: Ribosomal protein S6 kinase alpha-3 (Homo sapiens, UniProt P51812); assay: Inhibition of RPS6KA3 (unknown origin)
[28] = molecular target: Proto-oncogene tyrosine-protein kinase Src (Homo sapiens, UniProt P12931); assay: Inhibition of SRC (unknown origin)
[29] = molecular target: Tyrosine-protein kinase Srms (Homo sapiens, UniProt Q9H3Y6); assay: Inhibition of SRMS (unknown origin)
SRSF protein kinase 1 = SRSF protein kinase 1 (Homo sapiens, UniProt Q96SB4); assay: Inhibition of SRPK1 (unknown origin)
SRSF protein kinase 1, sequence (Q96SB4 whole entry): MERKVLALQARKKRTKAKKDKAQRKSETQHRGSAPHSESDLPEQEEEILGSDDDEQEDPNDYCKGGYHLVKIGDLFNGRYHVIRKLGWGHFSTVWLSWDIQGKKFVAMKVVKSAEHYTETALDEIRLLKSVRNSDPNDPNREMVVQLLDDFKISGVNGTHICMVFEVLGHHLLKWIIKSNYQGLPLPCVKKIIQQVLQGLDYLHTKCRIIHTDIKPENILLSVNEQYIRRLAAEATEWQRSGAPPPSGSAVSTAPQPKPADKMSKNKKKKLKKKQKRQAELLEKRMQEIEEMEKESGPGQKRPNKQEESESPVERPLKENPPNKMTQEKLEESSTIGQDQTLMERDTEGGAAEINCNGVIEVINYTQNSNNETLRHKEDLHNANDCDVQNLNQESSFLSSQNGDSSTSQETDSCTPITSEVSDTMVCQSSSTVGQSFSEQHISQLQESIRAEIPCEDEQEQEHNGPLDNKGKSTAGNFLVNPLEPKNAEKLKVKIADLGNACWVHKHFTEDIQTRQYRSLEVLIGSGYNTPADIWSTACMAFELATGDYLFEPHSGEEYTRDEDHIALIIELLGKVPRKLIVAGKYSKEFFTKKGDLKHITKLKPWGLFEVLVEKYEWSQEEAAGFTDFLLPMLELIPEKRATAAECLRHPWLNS

SRSF protein kinase 2 = SRSF protein kinase 2 (Homo sapiens, UniProt P78362); assay: Inhibition of SRPK2 (unknown origin)
[30] = molecular target: Testis-specific serine/threonine-protein kinase 2 (Homo sapiens, UniProt Q96PF2); assay: Inhibition of STK22B (unknown origin)
[31] = molecular target: Tyrosine-protein kinase Yes (Homo sapiens, UniProt P07947); assay: Inhibition of YES1 (unknown origin)
[32] = molecular target: Serine/threonine-protein kinase D1 (Homo sapiens) (UniProt Q15139); conditions: dose 100.0 nM
Description: Inhibition of PRKD1 (unknown origin) at 100 nM relative to control

[33] = molecular target: Cyclin-dependent kinase 1/cyclin B1 (Homo sapiens) (UniProt P06493+P14635); conditions: dose 100.0 nM
Description: Inhibition of CDK1/cyclin B (unknown origin) at 100 nM relative to control

[34] = molecular target: Tyrosine-protein kinase Fgr (Homo sapiens) (UniProt P09769); conditions: dose 100.0 nM
Tyrosine-protein kinase Fgr (Homo sapiens), sequence (P09769 2-529 limits assumed): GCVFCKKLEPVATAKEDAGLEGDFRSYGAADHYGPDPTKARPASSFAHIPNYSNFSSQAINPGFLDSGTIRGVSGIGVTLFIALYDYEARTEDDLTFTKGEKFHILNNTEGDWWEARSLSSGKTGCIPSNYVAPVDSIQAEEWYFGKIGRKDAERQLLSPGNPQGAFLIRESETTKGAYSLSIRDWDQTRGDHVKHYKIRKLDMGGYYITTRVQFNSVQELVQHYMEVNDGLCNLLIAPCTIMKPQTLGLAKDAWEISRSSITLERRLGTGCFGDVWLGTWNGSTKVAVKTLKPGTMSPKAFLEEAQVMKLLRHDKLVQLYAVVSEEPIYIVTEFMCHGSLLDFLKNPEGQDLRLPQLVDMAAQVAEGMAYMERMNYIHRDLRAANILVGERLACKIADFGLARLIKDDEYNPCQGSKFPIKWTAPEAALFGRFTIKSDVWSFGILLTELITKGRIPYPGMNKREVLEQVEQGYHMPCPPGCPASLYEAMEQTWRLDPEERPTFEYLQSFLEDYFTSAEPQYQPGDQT
Description: Inhibition of FGR (unknown origin) at 100 nM relative to control

[35] = molecular target: T1, G protein-coupled receptor kinase 4; conditions: dose 100.0 nM
Description: Inhibition of GRK4 (unknown origin) at 100 nM relative to control

[36] = molecular target: T2, Vascular endothelial growth factor receptor 2; conditions: dose 100.0 nM
Description: Inhibition of KDR (unknown origin) at 100 nM relative to control

[37] = molecular target: Mitogen-activated protein kinase kinase kinase 9 (Homo sapiens, UniProt P80192); conditions: dose 100.0 nM
Description: Inhibition of MAP3K9 (unknown origin) at 100 nM relative to control

[38] = molecular target: Misshapen-like kinase 1 (Homo sapiens) (UniProt Q8N4C8); conditions: dose 100.0 nM
Description: Inhibition of MINK1 (unknown origin) at 100 nM relative to control

[39] = molecular target: Macrophage-stimulating protein receptor (Homo sapiens, UniProt Q04912); conditions: dose 100.0 nM
Description: Inhibition of MST1R (unknown origin) at 100 nM relative to control

[40] = molecular target: Muscle, skeletal receptor tyrosine-protein kinase (Homo sapiens) (UniProt O15146); conditions: dose 100.0 nM
Description: Inhibition of MUSK (unknown origin) at 100 nM relative to control

[41] = molecular target: Myosin light chain kinase 2, skeletal/cardiac muscle (Homo sapiens, UniProt Q9H1R3); conditions: dose 100.0 nM
Description: Inhibition of MYLK2 (unknown origin) at 100 nM relative to control

[42] = molecular target: Serine/threonine-protein kinase N1 (Homo sapiens, UniProt Q16512); conditions: dose 100.0 nM
Description: Inhibition of PKN1 (unknown origin) at 100 nM relative to control

[43] = molecular target: T3, Protein kinase C gamma type; conditions: dose 100.0 nM
Description: Inhibition of PRKCG (unknown origin) at 100 nM relative to control

[44] = molecular target: Ribosomal protein S6 kinase alpha-1 (Homo sapiens) (UniProt Q15418); conditions: dose 100.0 nM
Description: Inhibition of RPS6KA1 (unknown origin) at 100 nM relative to control

[45] = molecular target: Ribosomal protein S6 kinase beta-1 (Homo sapiens, UniProt P23443); conditions: dose 100.0 nM
Description: Inhibition of RPS6KB1 (unknown origin) at 100 nM relative to control

[46] = molecular target: Testis-specific serine/threonine-protein kinase 1 (Homo sapiens) (UniProt Q9BXA7); conditions: dose 100.0 nM
Description: Inhibition of STK22D (unknown origin) at 100 nM relative to control

IC50 [1]: < 100 nM
IC50 [2]: < 100 nM
IC50 [3]: < 1000 nM
IC50 [4]: < 1000 nM
IC50 [5]: < 1000 nM
IC50 [6]: < 1000 nM
IC50 [7]: < 1000 nM
IC50 [8]: < 1000 nM
IC50 [9]: < 1000 nM
IC50 [10]: < 1000 nM
IC50 [11]: < 1000 nM
IC50 [12]: > 1000 nM
IC50 [13]: > 1000 nM
IC50 [14]: > 1000 nM
IC50 [15]: > 1000 nM
IC50 [16]: > 1000 nM
IC50 [17]: > 1000 nM
IC50 [18]: > 1000 nM
IC50 (Ephrin type-A receptor 2): > 1000 nM
IC50 [19]: > 1000 nM
IC50 [20]: > 1000 nM
IC50 [21]: > 1000 nM
IC50 [22]: > 1000 nM
IC50 [23]: > 1000 nM
IC50 [24]: > 1000 nM
IC50 [25]: > 1000 nM
IC50 [26]: > 1000 nM
IC50 [27]: > 1000 nM
IC50 [28]: > 1000 nM
IC50 [29]: > 1000 nM
IC50 (SRSF protein kinase 1): > 1000 nM
IC50 (SRSF protein kinase 2): > 1000 nM
IC50 [30]: > 1000 nM
IC50 [31]: > 1000 nM
inhibition [32]: > 50%
inhibition [33]: < 50%
inhibition [34]: < 50%
inhibition [35]: < 50%
inhibition [36]: < 50%
inhibition [37]: < 50%
inhibition [38]: < 50%
inhibition [39]: < 50%
inhibition [40]: < 50%
inhibition [41]: < 50%
inhibition [42]: < 50%
inhibition [43]: < 50%
inhibition [44]: < 50%
inhibition [45]: < 50%
inhibition [46]: < 50%
Structure (SMILES): N#CCNC(=O)c1ccc(-c2ccnc(Nc3ccc(N4CCOCC4)cc3)n2)cc1 [MOMELOTINIB]

Source: ChEMBL document CHEMBL5705885, “CYT387, a selective JAK1/JAK2 inhibitor: in vitro assessment of kinase selectivity and preclinical studies using cell lines and primary cells from polycythemia vera patients” (Leukemia, 2009)
